# Tests used:
# white ears = assay: Trial of the combination Chlorantraniliprole+Novaluron+Bifenthrin on white ears in paddy; assay type: in vivo; conditions: solo
# Experimental: Trials were conducted to test the efficacy of the combination of Chlorantraniliprole+Novaluron+Bifenthrin on white ears in paddy: […]
# Fruit and shoot borer = assay: Trial of the combination Chlorantraniliprole+Novaluron+Bifenthrin on Fruit and shoot borer in paddy; assay type: in vivo; conditions: solo
# Experimental: Trials were conducted to test the efficacy of the combination of Chlorantraniliprole+Novaluron+Bifenthrin on Fruit and shoot borer in paddy: […]
smiles,measurement,setting,value
O=C(NC(=O)c1c(F)cccc1F)Nc1ccc(OC(F)(F)C(F)OC(F)(F)F)c(Cl)c1 (stereo not drawn) [Novaluron],Percent control Fruit and shoot borer,"white ears; 3 DAA, dose 100 gm ai/ha",5%
same,Percent control Fruit and shoot borer,"white ears; 7 DAA, dose 100 gm ai/ha",6%
same,Percent control Fruit and shoot borer,"white ears; 10 DAA, dose 100 gm ai/ha",5.9%
same,Percent control Fruit and shoot borer,"white ears; 14 DAA, dose 100 gm ai/ha",4.9%
same,Percent control Fruit and shoot borer,"Fruit and shoot borer; 3 DAA, dose 100 gm ai/ha",64.3%
same,Percent control Fruit and shoot borer,"Fruit and shoot borer; 7 DAA, dose 100 gm ai/ha",75%
same,Percent control Fruit and shoot borer,"Fruit and shoot borer; 10 DAA, dose 100 gm ai/ha",68.3%
same,Percent control Fruit and shoot borer,"Fruit and shoot borer; 14 DAA, dose 100 gm ai/ha",64.3%
"CNC(=O)c1cc(Cl)cc(C)c1NC(=O)c1cc(Br)nn1-c1ncccc1Cl [Chlorantraniliprole, 3-bromo-4′-chloro-1-(3-chloro-2-pyridyl)-2′-methyl-6′-(methylcarbamoyl)pyrazole-5-carboxanilide]",Percent control Fruit and shoot borer,"white ears; 3 DAA, dose 30 gm ai/ha",5%
same,Percent control Fruit and shoot borer,"white ears; 7 DAA, dose 30 gm ai/ha",6%
same,Percent control Fruit and shoot borer,"white ears; 10 DAA, dose 30 gm ai/ha",5.9%
same,Percent control Fruit and shoot borer,"white ears; 14 DAA, dose 30 gm ai/ha",4.9%
same,Percent control Fruit and shoot borer,"Fruit and shoot borer; 3 DAA, dose 30 gm ai/ha",79.3%
same,Percent control Fruit and shoot borer,"Fruit and shoot borer; 7 DAA, dose 30 gm ai/ha",90%
same,Percent control Fruit and shoot borer,"Fruit and shoot borer; 10 DAA, dose 30 gm ai/ha",88.3%
same,Percent control Fruit and shoot borer,"Fruit and shoot borer; 14 DAA, dose 30 gm ai/ha",78.4%
Cc1c(COC(=O)[C@@H]2[C@H](/C=C(\Cl)C(F)(F)F)C2(C)C)cccc1-c1ccccc1 (racemic) [Bifenthrin],Percent control Fruit and shoot borer,"white ears; 3 DAA, dose 60 gm ai/ha",80%
same,Percent control Fruit and shoot borer,"white ears; 7 DAA, dose 60 gm ai/ha",79%
same,Percent control Fruit and shoot borer,"white ears; 10 DAA, dose 60 gm ai/ha",55%
same,Percent control Fruit and shoot borer,"white ears; 14 DAA, dose 60 gm ai/ha",38%
same,Percent control Fruit and shoot borer,"Fruit and shoot borer; 3 DAA, dose 60 gm ai/ha",54.3%
same,Percent control Fruit and shoot borer,"Fruit and shoot borer; 7 DAA, dose 60 gm ai/ha",71%
same,Percent control Fruit and shoot borer,"Fruit and shoot borer; 10 DAA, dose 60 gm ai/ha",64.3%
same,Percent control Fruit and shoot borer,"Fruit and shoot borer; 14 DAA, dose 60 gm ai/ha",58.3%

# From patent US12161117B2, “Agrochemical combinations” (UPL LTD, priority 2018, dated 2024)
